{"source": "patent US20090264426A1", "about": "“Bicyclic aromatic substituted pyridone derivative” (priority 2005, published 2009)", "note": "pIC50: −log10 of the molar value."}
{"target": "T1, human MCH-1R (Homo sapiens, UniProt Q99705)", "T1 construct": "expressed in transfected cells; host or cells: CHO-K1", "T1 sequence (Q99705 whole entry)": "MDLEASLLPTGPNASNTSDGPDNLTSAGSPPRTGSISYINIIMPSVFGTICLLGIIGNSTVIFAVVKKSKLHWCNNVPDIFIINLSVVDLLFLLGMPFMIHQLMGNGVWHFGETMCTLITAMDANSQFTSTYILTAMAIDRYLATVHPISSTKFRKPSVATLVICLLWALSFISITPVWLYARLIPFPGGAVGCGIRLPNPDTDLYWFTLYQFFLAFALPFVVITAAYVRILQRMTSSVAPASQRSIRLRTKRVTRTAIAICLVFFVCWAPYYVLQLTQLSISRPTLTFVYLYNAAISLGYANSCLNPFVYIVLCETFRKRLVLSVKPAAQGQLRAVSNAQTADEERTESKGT", "assay": "MCH binding inhibition test", "conditions": "50% inhibition of specific [125I]MCH (50 pM) binding; membranes of MCH-1R expressing CHO-K1 cells; 25° C., 1 hour, pH 7.4", "protocol": "A human MCH-1R encoding cDNA sequence [FEBS Letters, Vol. 398, 253 (1996); Biochimica et Biophisica Acta, Vol. 1401, 216 (1998)] was cloned to a plasmid vector pEF/myc/cyto (Invitrogen Corporation). The obtained expression vector was transfected to host cells CHO-K1 (American Type Culture Collection) using Lipofectamine Plus Reagent (Life Technology Inc.) to provide MCH-1R expression cells.\nMembrane samples prepared from the MCH-1R expression cells were incubated with each test compound and 50 pM of [^125I]MCH (NEN Co.), in an assay buffer (50 mM Tris buffer comprising 10 mM magnesium chloride, 2 mM ethylenediamine tetraacetate, 0.01% bacitracin and 0.2% bovine serum albumin; pH 7.4) at 25° C. for an hour, followed by filtration through a glass filter GF/C (Wattman Co.). After washing the glass filter with 50 mM Tris buffer (pH 7.4) comprising 10 mM magnesium chloride, 2 mM ethylenediamine tetraacetate and 0.04% Tween-20, the radioactive activity on the glass filter was measured. The non-specific binding was measured in the presence of 1 μM human MCH and 50% inhibition concentration (IC50 value) of each test compound to the specific [^125I]MCH binding was determined."}
{"compound": "O=c1cc(OCc2ccc(Cl)cn2)ccn1-c1ccc2nc(OCCN3CCCC3)ccc2c1", "note": "[Example 8, 4-[(5-Chloropyridin-2-yl)methoxy]-1-[2-(2-pyrrolidin-1-ylethoxy)quinolin-6-yl]pyridin-2(1H)-one]", "pIC50": 8.19}
{"compound": "O=c1cc(OCc2ccc(Cl)cn2)ccn1-c1ccc2nc(OCCCN3CCCC3)ccc2c1", "note": "[Example 20, 4-[(5-Chloropyridin-2-yl)methoxy]-1-[2-(3-pyrrolidin-1-ylpropoxy)quinolin-6-yl]pyridin-2(1H)-one]", "pIC50": 8.11}
{"compound": "CCNCc1ccc2cc(-n3ccc(OCc4ccc(F)cc4)cc3=O)ccc2n1", "note": "[Example 23, 1-{2-[(Ethylamino)methyl]quinolin-6-yl}-4-[(4-fluorobenzyl)oxy]pyridin-2(1H)-one]", "pIC50": 8.21}
{"compound": "O=c1cc(OCc2ccccc2)ccn1-c1ccc2cn(CCN3CCCC3)nc2c1", "note": "[Example 27, 4-(Benzyloxy)-1-[2-(2-pyrrolidin-1-ylethyl)-2H-indazol-6-yl]pyridin-2(1H)-one]", "pIC50": 7.10}
{"compound": "O=c1cc(OCc2ccccc2)ccn1-c1ccc2cc(CN3CCC3)ccc2n1", "note": "[Example 28, 1-[6-(Azetidin-1-ylmethyl)quinolin-2-yl]-4-(benzyloxy)pyridin-2(1H)-one]", "pIC50": 8.12}
{"compound": "O=c1cc(OCc2ccc(Cl)cn2)ccn1-c1ccc2nc(CN3CCC3)ccc2c1", "note": "[Example 30, 1-[2-(Azetidin-1-ylmethyl)quinolin-6-yl]-4-[(5-chloropyridin-2-yl)methoxy]pyridin-2(1H)-one]", "pIC50": 8.23}
{"compound": "CNCc1ccc2cc(-n3ccc(OCc4ccc(Cl)cc4)cc3=O)ccc2n1", "note": "[Example 35, 4-[(4-Chlorobenzyl)oxy]-1-{2-[(methylamino)methyl]quinolin-6-yl}pyridin-2(1H)-one]", "pIC50": 8.66}
{"compound": "O=c1cc(OCc2ccccc2)ccn1-c1ccc2cc(OCCN3CCCC3)ccc2c1", "note": "[Example 38, 4-(Benzyloxy)-1-[6-(2-pyrrolidin-1-ylethoxy)-2-naphthyl]pyridin-2(1H)-one]", "pIC50": 8.51}
{"compound": "CCCNCc1ccc2cc(-n3ccc(OCc4ccc(Cl)cn4)cc3=O)ccc2n1", "note": "[Example 40, 4-[(5-Chloropyridin-2-yl)methoxy]-1-{2-[(propylamino)methyl]quinolin-6-yl}pyridin-2(1H)-one]", "pIC50": 8.28}
{"compound": "O=c1cc(/C=C/c2ccc(Cl)cn2)ccn1-c1ccc2nc(OCCN3CCCC3)cnc2c1", "note": "[Example 57, 4-[(E)-2-(5-chloropyridin-2-yl)vinyl]-1-[2-(2-pyrrolidin-1-ylethoxy)quinoxalin-6-yl]pyridin-2(1H)-one]", "pIC50": 8.00}
{"compound": "Cc1c(CCCN2CCCC2)nc2ccc(-n3ccc(OCc4ccc(Cl)cn4)cc3=O)cn12", "note": "[Example 63, 4-[(5-Chloropyridin-2-yl)methoxy]-1-[3-methyl-2-(3-pyrrolidin-1-ylpropyl)imidazo[1,2-a]pyridin-6-yl]pyridin-2(1H)-one]", "pIC50": 7.66}
{"compound": "Cn1c(CCCN2CCCC2)nc2ccc(-n3ccc(OCc4ccc(Cl)cc4)cc3=O)cc21", "note": "[Example 65, 4-[(4-Chlorobenzyl)oxy]-1-[1-methyl-2-(3-pyrrolidin-1-ylpropyl)-1H-benzimidazol-6-yl]pyridin-2(1H)-one]", "pIC50": 8.29}
{"compound": "Cn1c(CN2CCCC2)cc2ccc(-n3ccc(OCc4ccc(Cl)cn4)cc3=O)cc21", "note": "[Example 70, 4-[(5-Chloropyridin-2-yl)methoxy]-1-[1-methyl-2-(pyrrolidin-1-ylmethyl)-1H-indol-6-yl]pyridin-2(1H)-one]", "pIC50": 7.96}
{"compound": "CCCNCCc1ccc2cc(-n3ccc(OCc4ccccc4)cc3=O)ccc2n1", "note": "[Example 76, 4-(Benzyloxy)-1-{2-[2-(propylamino)ethyl]quinolin-6-yl}pyridin-2(1H)-one]", "pIC50": 8.54}
{"compound": "O=c1cc(OCc2ccc(F)cc2)ccn1-c1ccc2oc(CN3CCCCCC3)cc2c1", "note": "[Example 89, 1-[2-(Azepan-1-ylmethyl)-1-benzofuran-5-yl]-4-[(4-fluorobenzyl)oxy]pyridin-2(1H)-one]", "pIC50": 7.72}
{"compound": "CC(C)N(C)c1nc2ccc(-n3ccc(OCCOc4ccc(F)cc4)cc3=O)cc2[nH]1", "note": "[Example 90, 4-[2-(4-fluorophenoxy)ethoxy]-1-{2-[isopropyl(methyl)amino]-1H-benzimidazol-6-yl}pyridin-2(1H)-one]", "pIC50": 8.01}
{"compound": "O=c1cc(OCc2ccc(F)cc2)ccn1OCc1ccc2nc(CN3CCCC3)ccc2c1", "note": "[Example 94, 4-[(4-Fluorobenzyl)oxy]-1-{[2-(pyrrolidin-1-ylmethyl)quinolin-6-yl]methoxy}pyridin-2(1H)-one]", "pIC50": 7.98}
{"compound": "O=c1cc(OCc2ccc(F)cc2)ccn1-c1ccc2nc(CN3CCC3)ccc2n1", "note": "[Example 95, 1-[6-(Azetidin-1-ylmethyl)-1,5-naphthyridin-2-yl]-4-[(4-fluorobenzyl)oxy]pyridin-2(1H)-one]", "pIC50": 7.64}
{"compound": "O=c1cc(OCc2ccc(F)cc2)ccn1-c1ccc2cc(CN3CCC3)cnc2c1", "note": "[Example 98, 1-[3-(Azetidin-1-ylmethyl)quinolin-7-yl]-4-[(4-fluorobenzyl)oxy]pyridin-2(1H)-one]", "pIC50": 8.02}
{"compound": "O=c1cc(OCc2ccc(F)cc2)ccn1-c1ccc2cc(CN3CCC3)ncc2c1", "note": "[Example 99, 1-[3-(Azetidin-1-ylmethyl)isoquinolin-7-yl]-4-[(4-fluorobenzyl)oxy]pyridin-2(1H)-one]", "pIC50": 8.22}
